Measurements: patent US8399419B2, “Antibacterial aminoglycoside analogs” (Achaogen, Inc., priority 2008, dated 2013)
Converted amounts (≈) assume the structure as drawn.

Assays:
E. coli ATCC 25922 = assay: MIC assay (CLSI broth microdilution), AECO001; format: cell-based; conditions: Escherichia coli; AECO001 is ATCC25922 (E. coli); Mueller Hinton Broth, 35 C, 20 hours
Protocol: (§1) Minimum inhibitory concentrations (MIC) were determined by reference Clinical and Laboratory Standards Institute (CLSI) broth microdilution methods per M7-A7 [2006]. Quality control ranges utilizing E. coli ATCC 25922, P. aeruginosa ATCC 27853 and S. aureus ATCC 29213, and interpretive criteria for comparator agents were as published in CLSI M100-S17 [2007]. Briefly, serial two-fold dilutions of the test compounds were prepared at 2× concentration in Mueller Hinton Broth. The compound dilutions were mixed in 96-well assay plates in a 1:1 ratio with bacterial inoculum. The inoculum was prepared by suspension of a colony from an agar plate that was prepared the previous day. Bacteria were suspended in sterile saline and added to each assay plate to obtain a final concentration of 5×10^5 CFU/mL. The plates were incubated at 35 C for 20 hours in ambient air.

P. aeruginosa ATCC 27853 = assay: MIC assay (CLSI broth microdilution), APAE001; format: cell-based; conditions: Pseudomonas aeruginosa; APAE001 is ATCC27853 (P. aeruginosa); Mueller Hinton Broth, 35 C, 20 hours
Protocol: as §1

MIC (E. coli ATCC 25922) [µg/mL]	MIC (P. aeruginosa ATCC 27853) [µg/mL]	SMILES
1 to 16 (≈ 1.68 to 26.9 µM)	1 to 16 (≈ 1.68 to 26.9 µM)	NC[C@@H]1CC[C@@H](N)[C@@H](O[C@H]2[C@H](O[C@@H]3O[C@H](CO)[C@@H](O[C@H]4O[C@@H](CN)CC[C@H]4N)[C@H]3O)[C@@H](O)[C@H](NCCO)C[C@@H]2N)O1 [Example 15/Compound 3, 3′,4′,3′″,4′″-tetra-deoxy-1-(2-hydroxyethyl)-neomycin]
1 to 16 (≈ 1.69 to 27 µM)	1 to 16 (≈ 1.69 to 27 µM)	CC(=O)N[C@@H]1C[C@H](N)[C@@H](O[C@H]2O[C@H](CN)CC[C@H]2N)[C@H](O[C@@H]2O[C@H](CO)[C@@H](O[C@H]3O[C@@H](CN)CC[C@H]3N)[C@H]2O)[C@H]1O [Example 8/Compound 3]
1 to 16 (≈ 1.6 to 25.6 µM)	≤ 1	NC[C@@H]1CC[C@@H](N)[C@@H](O[C@H]2[C@H](O[C@@H]3O[C@H](CO)[C@@H](O[C@H]4O[C@@H](CN)CC[C@H]4N)[C@H]3O)[C@@H](O)[C@H](NCC(O)CO)C[C@@H]2N)O1 (stereo partly drawn) [Example 18/Compound 3, 3′,4′,3′″,4′″-tetra-deoxy-1-(2,3-bis-hydroxy-propyl)-neomycin]
1 to 16 (≈ 1.6 to 25.7 µM)	≤ 1	NCC(O)CN[C@@H]1C[C@H](N)[C@@H](O[C@H]2O[C@H](CN)CC[C@H]2N)[C@H](O[C@@H]2O[C@H](CO)[C@@H](O[C@H]3O[C@@H](CN)CC[C@H]3N)[C@H]2O)[C@H]1O (stereo partly drawn) [Example 12/Compound 3, 3′,4′,3′″,4′″-tetra-deoxy-1-(2-hydroxy-3-amino-propyl)-neomycin]

Further lines, the molecule ahead of its results:

SMILES	MIC (E. coli ATCC 25922) [µg/mL]	MIC (P. aeruginosa ATCC 27853) [µg/mL]
NCCS(=O)(=O)N[C@@H]1C[C@H](N)[C@@H](O[C@H]2O[C@H](CN)CC[C@H]2N)[C@H](O[C@@H]2O[C@H](CO)[C@@H](O[C@H]3O[C@@H](CN)CC[C@H]3N)[C@H]2O)[C@H]1O [Example 23/Compound 4, 3′,4′,3′″,4′″-tetra-deoxy-1-(2-amino-ethylsulfonamide)-neomycin]	1 to 16 (≈ 1.52 to 24.3 µM)	–
NCCN(O)C(=O)N[C@@H]1C[C@H](N)[C@@H](O[C@H]2O[C@H](CN)CC[C@H]2N)[C@H](O[C@@H]2O[C@H](CO)[C@@H](O[C@H]3O[C@@H](CN)CC[C@H]3N)[C@H]2O)[C@H]1O [Example 22/Compound 6]	≤ 1	≤ 1
NC[C@@H]1CC[C@@H](N)[C@@H](O[C@H]2[C@H](O[C@@H]3O[C@H](CO)[C@@H](O[C@H]4O[C@@H](CN)CC[C@H]4N)[C@H]3O)[C@@H](O)[C@H](NC(=O)[C@H](O)[C@H](O)CN)C[C@@H]2N)O1 [Example 29/Compound 6, 3′,4′,3′″,4′″-tetra-deoxy-1-(4-amino-3,2-(R,R)-bis-hydroxy-butyryl)-neomycin]	1 to 16 (≈ 1.5 to 24 µM)	≤ 1
NCC[C@H](O)C(=O)N[C@@H]1C[C@H](N)[C@@H](O[C@H]2O[C@H](CN)CC[C@H]2N)[C@H](O[C@@H]2O[C@H](CO)[C@@H](O[C@H]3O[C@H](CN)CC[C@H]3N)[C@H]2O)[C@H]1O [Example 6/Compound 9]	1 to 16 (≈ 1.53 to 24.5 µM)	1 to 16 (≈ 1.53 to 24.5 µM)
NC[C@@H]1CC[C@@H](N)[C@@H](O[C@H]2[C@H](O[C@@H]3O[C@H](CO)[C@@H](O[C@H]4O[C@@H](CN)CC[C@H]4N)[C@H]3O)[C@@H](O)[C@H](NC(=O)C3(O)CC(N)C3)C[C@@H]2N)O1 (stereo partly drawn) [Example 9/Compound 4]	≤ 1	≤ 1
NC[C@@H]1CC[C@@H](N)[C@@H](O[C@H]2[C@H](O[C@@H]3O[C@H](CO)[C@@H](O[C@H]4O[C@@H](CN)CC[C@H]4N)[C@H]3O)[C@@H](O)[C@H](NC(=O)[C@H](O)[C@@H](F)CN)C[C@@H]2N)O1 [Example 25/Compound 8, 3′,4′,3′″,4′″-tetra-deoxy-1-(4-amino-3(S)-fluoro-2(S)-hydroxy-butyryl)-neomycin]	≤ 1	≤ 1
NC[C@@H]1CC[C@@H](N)[C@@H](O[C@H]2[C@H](O[C@@H]3O[C@H](CO)[C@@H](O[C@H]4O[C@@H](CN)CC[C@H]4N)[C@H]3O)[C@@H](O)[C@H](NC(=O)[C@H](O)C(F)(F)CN)C[C@@H]2N)O1 [Example 27/Compound 6, 3′,4′,3′″,4′″-tetra-deoxy-1-(4-amino-3,3-bisfluoro-2(S)-hydroxy-butyryl)-neomycin]	1 to 16 (≈ 1.45 to 23.3 µM)	1 to 16 (≈ 1.45 to 23.3 µM)
